In patent US9708334B2, “Substituted 2,4,5,6-tetrahydropyrrolo[3,4-c]pyrazole and 4,5,6,7-tetrahydro-2H-pyrazolo[4,3-c]pyridine compounds as GlyT1 inhibitors” (DART NEUROSCIENCE (CAYMAN) LTD., priority 2014, dated 2017):

Target: T1, GlyT1 (Homo sapiens, UniProt P48067)
T1 construct: expressed in transfected cells
T1 sequence (P48067 1-706): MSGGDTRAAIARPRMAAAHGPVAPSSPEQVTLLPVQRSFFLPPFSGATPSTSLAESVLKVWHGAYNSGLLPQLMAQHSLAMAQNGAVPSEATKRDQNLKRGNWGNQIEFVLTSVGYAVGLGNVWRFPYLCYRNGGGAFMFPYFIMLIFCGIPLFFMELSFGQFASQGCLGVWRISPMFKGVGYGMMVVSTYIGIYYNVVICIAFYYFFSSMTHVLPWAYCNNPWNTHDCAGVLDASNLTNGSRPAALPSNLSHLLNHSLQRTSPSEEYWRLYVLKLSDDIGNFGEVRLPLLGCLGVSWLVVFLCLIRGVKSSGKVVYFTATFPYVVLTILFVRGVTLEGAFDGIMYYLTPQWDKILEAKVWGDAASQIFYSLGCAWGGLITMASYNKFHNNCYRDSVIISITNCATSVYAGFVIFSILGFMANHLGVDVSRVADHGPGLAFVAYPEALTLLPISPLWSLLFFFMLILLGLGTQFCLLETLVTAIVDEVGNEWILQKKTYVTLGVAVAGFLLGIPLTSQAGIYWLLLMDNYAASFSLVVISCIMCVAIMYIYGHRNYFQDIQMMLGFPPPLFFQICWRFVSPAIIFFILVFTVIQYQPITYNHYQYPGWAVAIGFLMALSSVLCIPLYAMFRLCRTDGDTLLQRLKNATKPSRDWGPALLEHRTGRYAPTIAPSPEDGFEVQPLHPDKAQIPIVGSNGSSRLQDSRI
Experiment: Glycine Transporter 1 (GlyT1) uptake assay, scintillation proximity assay of [14C]-glycine uptake
Assay type: cell-based
Details: SPA, four parameter logistic fit, read-out: GlyT1 (pIC50) (converted)
Method: Glycine Transporter 1 (GlyT1) Uptake Assay
Plates were then read on a MicroBeta plate counter (Perkin Elmer). Dose-response data for tested compounds were analyzed and curves were fit using a four parameter logistic fit to determine IC50 values. […]

| Structure (SMILES) | IC50 [nM] |
| --- | --- |
| CC(C)Oc1cc(-n2cc3c(n2)CN(C(=O)c2cc(C#N)ccc2OC(C)C(F)(F)F)C3)ccn1 (stereo in doubt) [Example 372, 3-{2-[2-(Propan-2-yloxy)pyridin-4-yl]-2H 4H 5H 6H-pyrrolo[3,4-c]pyrazole-5-carbonyl}-4-{[(2S)-1 1 1-trifluoropropan-2-yl]oxy}benzonitrile] | 100 to 1000 |
| CCC(C)Cn1cc2c(n1)CN(C(=O)c1cc(S(C)(=O)=O)ccc1N1CCC(F)(F)CC1)C2 (stereo in doubt) [Example 429, 4 4-Difluoro-1-(4-methanesulfonyl-2-{2-[(2S)-2-methylbutyl]-2H 4H 5H 6H-pyrrolo[3,4-c]pyrazole-5-carbonyl}phenyl)piperidine] | < 100 |
| CC(C)Oc1ccc(S(C)(=O)=O)cc1C(=O)N1Cc2cn(-c3ccc(F)cc3)nc2C1 [Example 1, (2-(4-Fluorophenyl)pyrrolo[3,4-c]pyrazol-5(2H,4H,6H)-yl)(2-isopropoxy-5-(methylsulfonyl)phenyl)methanone] | < 100 |
| CC(C)Oc1ccc(S(C)(=O)=O)cc1C(=O)N1Cc2cn(-c3ccc(F)c(F)c3)nc2C1 [Example 2, (2-(3,4-Difluorophenyl)pyrrolo[3,4-c]pyrazol-5(2H,4H,6H)-yl)(2-isopropoxy-5-(methylsulfonyl)phenyl)methanone] | < 100 |
| Cc1cc(-n2cc3c(n2)CN(C(=O)c2cc(C#N)ccc2OCC(C)(C)C)C3)ccn1 [Example 3, 3-(2-(2-Methylpyridin-4-yl)-2,4,5,6-tetrahydropyrrolo[3,4-c]pyrazole-5-carbonyl)-4-(neopentyloxy)benzonitrile] | < 100 |
| COc1c(C#N)ccc(OC(C)C(F)(F)F)c1C(=O)N1CCc2nn(-c3ccc(F)cc3)cc2C1 (stereo not drawn) [Example 4, 3-(2-(4-Fluorophenyl)-4,5,6,7-tetrahydro-2H-pyrazolo[4,3-c]pyridine-5-carbonyl)-2-methoxy-4-((1,1,1-trifluoropropan-2-yl)oxy)benzonitrile] | 100 to 1000 |
| CC(Oc1ccc(C(=O)O)c(Cl)c1C(=O)N1Cc2cn(-c3ccc(F)cc3)nc2C1)C(F)(F)F (stereo not drawn) [Example 5, 2-Chloro-3-(2-(4-fluorophenyl)-2,4,5,6-tetrahydropyrrolo[3,4-c]pyrazole-5-carbonyl)-4-((1,1,1-trifluoropropan-2-yl)oxy)benzoic acid] | > 10000 |
| CC(Oc1ccc(C(=O)N2CCC2)c(Cl)c1C(=O)N1CCc2nn(-c3ccc(F)cc3)cc2C1)C(F)(F)F (stereo not drawn) [Example 6, 1-{2-Chloro-3-[2-(4-fluorophenyl)-2H 4H 5H 6H 7H-pyrazolo[4,3-c]pyridine-5-carbonyl]-4-[(1 1 1-trifluoropropan-2-yl)oxy]benzoyl}azetidine] | > 10000 |
| CC(Oc1ccc(C(N)=O)cc1C(=O)N1CCc2nn(-c3ccc(F)cc3)cc2C1)C(F)(F)F (stereo not drawn) [Example 7, 3-(2-(4-Fluorophenyl)-4,5,6,7-tetrahydro-2H-pyrazolo[4,3-c]pyridine-5-carbonyl)-4-((1,1,1-trifluoropropan-2-yl)oxy)benzamide] | 1000 to 10000 |
| Cc1cc(-n2cc3c(n2)CN(C(=O)c2cc(C#N)ccc2-c2cccc(F)c2)C3)ccn1 [Example 8, 4-(3-Fluorophenyl)-3-[2-(2-methylpyridin-4-yl)-2H 4H 5H 6H-pyrrolo[3,4-c]pyrazole-5-carbonyl]benzonitrile] | < 100 |
| CC(Oc1ccc(C#N)cc1C(=O)N1Cc2cn(-c3ccc(F)cc3)nc2C1)C(F)F (stereo not drawn) [Example 9, 4-((1,1-Difluoropropan-2-yl)oxy)-3-(2-(4-fluorophenyl)-2,4,5,6-tetrahydropyrrolo[3,4-c]pyrazole-5-carbonyl)benzonitrile] | < 100 |
| COc1c(C#N)ccc(CCC(C)(C)C)c1C(=O)N1Cc2cn(-c3ccc(F)cc3)nc2C1 [Example 10, 4-(3,3-Dimethylbutyl)-3-(2-(4-fluorophenyl)-2,4,5,6-tetrahydropyrrolo[3,4-c]pyrazole-5-carbonyl)-2-methoxybenzonitrile] | 100 to 1000 |
| COc1c(C#N)ccc(OC(C)C(F)F)c1C(=O)N1Cc2cn(-c3ccc(F)cc3)nc2C1 (stereo not drawn) [Example 11, 4-[(1 1-Difluoropropan-2-yl)oxy]-3-[2-(4-fluorophenyl)-2H 4H 5H 6H-pyrrolo[3,4-c]pyrazole-5-carbonyl]-2-methoxybenzonitrile] | < 100 |
| COc1c(C#N)ccc(C2(F)CCC(F)(F)CC2)c1C(=O)N1CCc2nn(-c3ccc(F)cn3)cc2C1 [Example 12, 3-[2-(5-Fluoropyridin-2-yl)-2H 4H 5H 6H 7H-pyrazolo[4,3-c]pyridine-5-carbonyl]-2-methoxy-4-(1 4 4-trifluorocyclohexyl)benzonitrile] | 100 to 1000 |
| COc1c(C#N)ccc(C2(F)CCC(F)(F)CC2)c1C(=O)N1CCc2nn(-c3cccnc3)cc2C1 [Example 13, 2-Methoxy-3-[2-(pyridin-3-yl)-2H 4H 5H 6H 7H-pyrazolo[4,3-c]pyridine-5-carbonyl]-4-(1 4 4-trifluorocyclohexyl)benzonitrile] | 1000 to 10000 |
| COc1c(C#N)ccc(C2(F)CCOCC2)c1C(=O)N1CCc2nn(-c3ccc(F)cn3)cc2C1 [Example 14, 4-(4-Fluorooxan-4-yl)-3-[2-(5-fluoropyridin-2-yl)-2H 4H 5H 6H 7H-pyrazolo[4,3-c]pyridine-5-carbonyl]-2-methoxybenzonitrile] | 100 to 1000 |
| COc1c(C#N)ccc(C2(F)CCC(F)(F)CC2)c1C(=O)N1Cc2cn(-c3ccc(F)cn3)nc2C1 [Example 15, 3-[2-(5-Fluoropyridin-2-yl)-2H 4H 5H 6H-pyrrolo[3,4-c]pyrazole-5-carbonyl]-2-methoxy-4-(1 4 4-trifluorocyclohexyl)benzonitrile] | 100 to 1000 |
| COc1cc(-n2cc3c(n2)CN(C(=O)c2c(O[C@@H](C)C(F)(F)F)ccc(C#N)c2Cl)C3)ccn1 [Example 16, 2-Chloro-3-[2-(2-methoxypyridin-4-yl)-2H 4H 5H 6H-pyrrolo[3,4-c]pyrazole-5-carbonyl]-4-{[(2S)-1 1 1-trifluoropropan-2-yl]oxy}benzonitrile] | < 100 |
| Cc1cc(-n2cc3c(n2)CN(C(=O)c2c(O[C@@H](C)C(F)(F)F)ccc(C#N)c2Cl)C3)ccn1 [Example 17, 2-Chloro-3-[2-(2-methylpyridin-4-yl)-2H 4H 5H 6H-pyrrolo[3,4-c]pyrazole-5-carbonyl]-4-{[(2S)-1 1 1-trifluoropropan-2-yl]oxy}benzonitrile] | < 100 |
| COc1c(C#N)ccc(O[C@@H](C)C(F)(F)F)c1C(=O)N1Cc2cn(-c3ccnc(C)c3)nc2C1 [Example 18, 2-Methoxy-3-[2-(2-methylpyridin-4-yl)-2H 4H 5H 6H-pyrrolo[3,4-c]pyrazole-5-carbonyl]-4-{[(2S)-1 1 1-trifluoropropan-2-yl]oxy}benzonitrile] | < 100 |
| Cc1cccc(-n2cc3c(n2)CN(C(=O)c2c(O[C@@H](C)C(F)(F)F)ccc(C#N)c2Cl)C3)n1 [Example 19, 2-Chloro-3-[2-(6-methylpyridin-2-yl)-2H 4H 5H 6H-pyrrolo[3,4-c]pyrazole-5-carbonyl]-4-{[(2S)-1 1 1-trifluoropropan-2-yl]oxy}benzonitrile] | < 100 |
| COc1c(C#N)ccc(C2(F)CCC2)c1C(=O)N1Cc2cn(-c3cccc(C)n3)nc2C1 [Example 20, 4-(1-Fluorocyclobutyl)-2-methoxy-3-[2-(6-methylpyridin-2-yl)-2H 4H 5H 6H-pyrrolo[3,4-c]pyrazole-5-carbonyl]benzonitrile] | 100 to 1000 |
| COc1c(C#N)ccc(C2(F)CCOCC2)c1C(=O)N1Cc2cn(-c3cccc(C)n3)nc2C1 [Example 21, 4-(4-Fluorooxan-4-yl)-2-methoxy-3-[2-(6-methylpyridin-2-yl)-2H 4H 5H 6H-pyrrolo[3,4-e]pyrazole-5-carbonyl]benzonitrile] | 100 to 1000 |
| Cc1cccc(-n2cc3c(n2)CN(C(=O)c2c(OCC(F)(F)F)ccc(C#N)c2Cl)C3)n1 [Example 22, 2-Chloro-3-[2-(6-methylpyridin-2-yl)-2H 4H 5H 6H-pyrrolo[3,4-c]pyrazole-5-carbonyl]-4-(2 2 2-trifluoroethoxy)benzonitrile] | 100 to 1000 |
| COc1c(C#N)ccc(C2(F)CCC2)c1C(=O)N1Cc2cn(-c3cncc(F)c3)nc2C1 [Example 23, 4-(1-Fluorocyclobutyl)-3-[2-(5-fluoropyridin-3-yl)-2H 4H 5H 6H-pyrrolo[3,4-c]pyrazole-5-carbonyl]-2-methoxybenzonitrile] | 100 to 1000 |
| COc1c(C#N)ccc(C2(F)CCOCC2)c1C(=O)N1Cc2cn(-c3cncc(F)c3)nc2C1 [Example 24, 4-(4-Fluorooxan-4-yl)-3-[2-(5-fluoropyridin-3-yl)-2H 4H 5H 6H-pyrrolo[3,4-c]pyrazole-5-carbonyl]-2-methoxybenzonitrile] | 100 to 1000 |
| N#Cc1ccc(OCC(F)(F)F)c(C(=O)N2Cc3cn(-c4cncc(F)c4)nc3C2)c1Cl [Example 25, 2-Chloro-3-[2-(5-fluoropyridin-3-yl)-2H 4H 5H 6H-pyrrolo[3,4-c]pyrazole-5-carbonyl]-4-(2 2 2-trifluoroethoxy)benzonitrile] | 100 to 1000 |
